The text below walks through data of the supplement of paper PMC10307832.

Experiment in all cases: relative viability (nuclei count vs DMSO), 5 days (fraction); higher = more cells survive
Compound in assay [1]: CC1=NN=C(O1)C2=NN=C(C=C2)N3CCC(CC3)OC4=C(C=CC(=C4)F)Cl + CCNC(=O)c1noc(-c2cc(C(C)C)c(O)cc2O)c1-c1ccc(CN2CCOCC2)cc1 [Luminespib] (partner 0.01 µM)
The essentials:
(§1)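 Five library-drug doses in √10 steps were combined with a fixed anchor-drug dose, or a single drug was given alone, by pin tool to lung cancer cell lines in 1536-well plates the day after seeding. Nuclei were stained and counted after 5 days. Relative viability is the nuclei count in treated wells over that in vehicle wells, taken as the median of duplicate plates.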

Compound in the assay “Tosedostat + Crizotinib”: CC(C)C[C@@H](C(=O)N[C@H](C(=O)OC1CCCC1)c1ccccc1)[C@H](O)C(=O)NO [Tosedostat] + C[C@@H](Oc1cc(-c2cnn(C3CCNCC3)c2)cnc1N)c1c(Cl)ccc(F)c1Cl [Crizotinib] (partner 1 µM)
An outline of the steps:
as §1

Compound in assay [2]: CC1=NN=C(O1)C2=NN=C(C=C2)N3CCC(CC3)OC4=C(C=CC(=C4)F)Cl + Cc1nc(Nc2ncc(C(=O)Nc3c(C)cccc3Cl)s2)cc(N2CCN(CCO)CC2)n1 [Dasatinib] (partner 0.075 µM)
The essentials:
as §1

Compound in assay [3]: CC1=NN=C(O1)C2=NN=C(C=C2)N3CCC(CC3)OC4=C(C=CC(=C4)F)Cl + CC1(C)CCC(c2ccc(Cl)cc2)=C(CN2CCN(c3ccc(C(=O)NS(=O)(=O)c4ccc(N[C@H](CCN5CCOCC5)CSc5ccccc5)c(S(=O)(=O)C(F)(F)F)c4)cc3)CC2)C1 [Navitoclax] (partner 0.5 µM)
The essentials:
as §1

In the case of NCI-H2347, the relative viability in assay [1] (first compound 0.8 µM) turned out to be 0.433; in assay [1] (first compound 2.53 µM), 0.421; in assay [1] (first compound 8 µM) it was 0.459; with Tosedostat + Crizotinib (first compound 0.02 µM), 0.818; with Tosedostat + Crizotinib (first compound 0.06325 µM), 0.666; with Tosedostat + Crizotinib (first compound 0.2 µM) it was 0.676. In addition, the relative viability was 0.747 with Tosedostat + Crizotinib (first compound 0.6325 µM); 0.771 with Tosedostat + Crizotinib (first compound 2 µM); 0.343 in assay [2] (first compound 0.8 µM); 0.33 in assay [2] (first compound 2.53 µM); 0.277 in assay [2] (first compound 8 µM); 0.643 in assay [3] (first compound 0.253 µM). The relative viability in assay [3] (first compound 0.8 µM) is 0.533; in assay [3] (first compound 2.53 µM), 0.62; in assay [3] (first compound 8 µM) it was 0.532.

On to NCI-H2405, for which the relative viability was 0.558 in assay [1] (first compound 0.253 µM); 0.434 in assay [1] (first compound 0.8 µM); 0.534 in assay [1] (first compound 2.53 µM); 0.612 in assay [1] (first compound 8 µM); 0.873 in the assay with Tosedostat + Crizotinib (first compound 0.02 µM); 0.772 in the assay with Tosedostat + Crizotinib (first compound 0.06325 µM). The relative viability with Tosedostat + Crizotinib (first compound 0.2 µM) is 0.825; with Tosedostat + Crizotinib (first compound 0.6325 µM) it was 0.771; with Tosedostat + Crizotinib (first compound 2 µM), 0.791; in assay [2] (first compound 0.253 µM) it was 0.199; in assay [2] (first compound 0.8 µM) it was 0.207; in assay [2] (first compound 2.53 µM) it was 0.179. The relative viability in assay [2] (first compound 8 µM) is 0.181; in assay [3] (first compound 0.253 µM) it was 0.902; in assay [3] (first compound 0.8 µM), 0.722; in assay [3] (first compound 2.53 µM) it was 0.784; in assay [3] (first compound 8 µM), 0.83.

For the cell line NCI-H3122, the relative viability was 0.0576 in assay [1] (first compound 0.253 µM); 0.108 in assay [1] (first compound 0.8 µM); 0.0895 in assay [1] (first compound 2.53 µM); 0.0702 in assay [1] (first compound 8 µM); 0.292 with Tosedostat + Crizotinib (first compound 0.02 µM); 0.274 with Tosedostat + Crizotinib (first compound 0.06325 µM). The relative viability in the assay with Tosedostat + Crizotinib (first compound 0.2 µM) worked out at 0.277; with Tosedostat + Crizotinib (first compound 0.6325 µM), 0.254; with Tosedostat + Crizotinib (first compound 2 µM), 0.234; in assay [2] (first compound 0.253 µM) it was 0.283; in assay [2] (first compound 0.8 µM) it was 0.313; in assay [2] (first compound 2.53 µM) it was 0.28. Further, the relative viability in assay [2] (first compound 8 µM) was found to be 0.23; in assay [3] (first compound 0.253 µM) it was 0.564; in assay [3] (first compound 0.8 µM), 0.612; in assay [3] (first compound 2.53 µM), 0.691; in assay [3] (first compound 8 µM), 0.46.

Take PC-3 [JPC-3]: the relative viability in assay [1] (first compound 0.253 µM) was found to be 0.674; in assay [1] (first compound 0.8 µM) it was 0.686; in assay [1] (first compound 2.53 µM), 0.611; in assay [1] (first compound 8 µM), 0.603; with Tosedostat + Crizotinib (first compound 0.02 µM) it was 1; in the assay with Tosedostat + Crizotinib (first compound 0.06325 µM), 0.885. Further, the relative viability was 0.998 with Tosedostat + Crizotinib (first compound 0.2 µM); 0.942 in the assay with Tosedostat + Crizotinib (first compound 0.6325 µM); 0.665 in the assay with Tosedostat + Crizotinib (first compound 2 µM); 0.944 in assay [2] (first compound 0.253 µM); 0.813 in assay [2] (first compound 0.8 µM); 0.877 in assay [2] (first compound 2.53 µM). Also, the relative viability in assay [2] (first compound 8 µM) came to 0.852; in assay [3] (first compound 0.253 µM), 0.764; in assay [3] (first compound 0.8 µM) it was 0.691; in assay [3] (first compound 2.53 µM), 0.796; in assay [3] (first compound 8 µM), 0.722.

For PC-14, the relative viability in assay [1] (first compound 0.253 µM) stood at 0.163; in assay [1] (first compound 2.53 µM), 0.22; in assay [1] (first compound 8 µM) it was 0.142; in the assay with Tosedostat + Crizotinib (first compound 0.02 µM), 0.843; with Tosedostat + Crizotinib (first compound 0.06325 µM) it was 0.805; with Tosedostat + Crizotinib (first compound 0.2 µM), 0.893. For the same cell line, the relative viability in the assay with Tosedostat + Crizotinib (first compound 0.6325 µM) stood at 0.842; in the assay with Tosedostat + Crizotinib (first compound 2 µM), 0.92; in assay [2] (first compound 0.253 µM) it was 0.264; in assay [2] (first compound 0.8 µM), 0.242; in assay [2] (first compound 2.53 µM), 0.283; in assay [2] (first compound 8 µM), 0.231. The relative viability in assay [3] (first compound 0.253 µM) amounted to 0.742; in assay [3] (first compound 0.8 µM), 0.717; in assay [3] (first compound 2.53 µM), 0.719; in assay [3] (first compound 8 µM), 0.702.

For RERF-LC-KJ, the relative viability in assay [1] (first compound 0.253 µM) was determined as 0.75; in assay [1] (first compound 0.8 µM) it was 0.647; in assay [1] (first compound 2.53 µM), 0.612; in assay [1] (first compound 8 µM) it was 0.673; with Tosedostat + Crizotinib (first compound 0.02 µM), 0.859; with Tosedostat + Crizotinib (first compound 0.06325 µM), 0.887. Moreover, the relative viability was 0.764 in the assay with Tosedostat + Crizotinib (first compound 0.2 µM); 0.686 in the assay with Tosedostat + Crizotinib (first compound 0.6325 µM); 0.78 with Tosedostat + Crizotinib (first compound 2 µM); 0.553 in assay [2] (first compound 0.253 µM); 0.559 in assay [2] (first compound 0.8 µM); 0.619 in assay [2] (first compound 2.53 µM). For the same cell line, the relative viability in assay [2] (first compound 8 µM) was 0.581; in assay [3] (first compound 0.253 µM) it was 0.781; in assay [3] (first compound 2.53 µM), 0.671; in assay [3] (first compound 8 µM), 0.765.

With SK-LU-1, the relative viability in assay [1] (first compound 0.253 µM) came out at 0.218; in assay [1] (first compound 2.53 µM), 0.207; in assay [1] (first compound 8 µM), 0.185; with Tosedostat + Crizotinib (first compound 0.02 µM), 0.898; with Tosedostat + Crizotinib (first compound 0.06325 µM), 0.775; with Tosedostat + Crizotinib (first compound 0.2 µM) it was 0.731. The relative viability with Tosedostat + Crizotinib (first compound 0.6325 µM) came out at 0.693; with Tosedostat + Crizotinib (first compound 2 µM), 0.871; in assay [2] (first compound 0.253 µM) it was 0.166; in assay [2] (first compound 2.53 µM), 0.0949; in assay [2] (first compound 8 µM), 0.119; in assay [3] (first compound 0.253 µM), 0.765. In addition, the relative viability in assay [3] (first compound 0.8 µM) was determined as 0.957; in assay [3] (first compound 2.53 µM), 0.706; in assay [3] (first compound 8 µM) it was 0.531.

For SK-MES-1, the relative viability in assay [1] (first compound 0.253 µM) stood at 0.726; in assay [1] (first compound 0.8 µM), 0.725; in assay [1] (first compound 2.53 µM) it was 0.631; in assay [1] (first compound 8 µM), 0.547; with Tosedostat + Crizotinib (first compound 0.02 µM), 1.06; with Tosedostat + Crizotinib (first compound 0.06325 µM), 0.988. Moreover, the relative viability with Tosedostat + Crizotinib (first compound 0.2 µM) was 0.983; in the assay with Tosedostat + Crizotinib (first compound 0.6325 µM), 0.909; in the assay with Tosedostat + Crizotinib (first compound 2 µM), 0.856; in assay [2] (first compound 0.253 µM) it was 0.359; in assay [2] (first compound 0.8 µM) it was 0.384; in assay [2] (first compound 2.53 µM) it was 0.419. The relative viability in assay [2] (first compound 8 µM) was 0.42; in assay [3] (first compound 0.253 µM), 0.995; in assay [3] (first compound 0.8 µM), 1.04; in assay [3] (first compound 2.53 µM), 1.03; in assay [3] (first compound 8 µM), 0.929.

SW 1573: the relative viability amounted to 0.184 in assay [1] (first compound 0.253 µM); 0.204 in assay [1] (first compound 0.8 µM); 0.264 in assay [1] (first compound 2.53 µM); 0.2 in assay [1] (first compound 8 µM); 0.711 with Tosedostat + Crizotinib (first compound 0.02 µM); 0.868 in the assay with Tosedostat + Crizotinib (first compound 0.06325 µM). For the same cell line, the relative viability in the assay with Tosedostat + Crizotinib (first compound 0.2 µM) was found to be 0.637; with Tosedostat + Crizotinib (first compound 0.6325 µM), 0.648; with Tosedostat + Crizotinib (first compound 2 µM) it was 0.713; in assay [2] (first compound 0.253 µM) it was 0.452; in assay [2] (first compound 0.8 µM) it was 0.535; in assay [2] (first compound 2.53 µM), 0.459. For the same cell line, the relative viability turned out to be 0.315 in assay [2] (first compound 8 µM); 1.03 in assay [3] (first compound 0.253 µM); 0.84 in assay [3] (first compound 0.8 µM); 0.851 in assay [3] (first compound 2.53 µM); 0.922 in assay [3] (first compound 8 µM).
